According to ChEMBL document CHEMBL3259593, “Development of [(3)H]2-Carboxy-4,6-dichloro-1H-indole-3-propionic Acid ([(3)H]PSB-12150): A Useful Tool for Studying GPR17” (ACS Med Chem Lett, 2014):
Active and inactive are the calls of the source. The rule behind the calls is not given here.

Assays:
[1] = molecular target: T1, Uracil nucleotide/cysteinyl leukotriene receptor (Homo sapiens, UniProt Q13304); test: Displacement of [3H]PSB-12150 from human GPR17 expressed in CHO-K1 cell membranes up to 1 mM after 60 mins by liquid scintillation counting
T1 sequence (Q13304 whole entry): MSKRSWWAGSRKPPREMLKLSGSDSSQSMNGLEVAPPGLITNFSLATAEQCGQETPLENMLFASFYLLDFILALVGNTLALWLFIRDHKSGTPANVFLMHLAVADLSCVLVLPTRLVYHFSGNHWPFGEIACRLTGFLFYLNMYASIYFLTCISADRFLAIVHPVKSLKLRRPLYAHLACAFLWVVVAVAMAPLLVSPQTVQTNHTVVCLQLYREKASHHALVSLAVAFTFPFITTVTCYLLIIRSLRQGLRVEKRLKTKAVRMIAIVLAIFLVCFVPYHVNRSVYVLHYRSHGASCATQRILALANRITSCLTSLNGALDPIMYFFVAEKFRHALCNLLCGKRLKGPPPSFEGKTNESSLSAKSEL

[2] = molecular target: T1, Uracil nucleotide/cysteinyl leukotriene receptor; test: Displacement of [3H]PSB-12150 from human GPR17 expressed in CHO-K1 cell membranes up to 1 uM after 60 mins by liquid scintillation counting
[3] = molecular target: T1, Uracil nucleotide/cysteinyl leukotriene receptor; test: Binding affinity to human GPR17 expressed in CHO-K1 cell membranes after 60 mins by saturation curve study
[4] = molecular target: T1, Uracil nucleotide/cysteinyl leukotriene receptor; test: biochemical
Description: Displacement of [3H]PSB-12150 from human GPR17 expressed in CHO-K1 cell membranes after 60 mins by heterologous competition binding assay

[5] = molecular target: T1, Uracil nucleotide/cysteinyl leukotriene receptor; conditions: CHO-K1, 100 uM
Description: Displacement of [3H]PSB-12150 from human GPR17 expressed in CHO-K1 cell membranes assessed as dissociation half life at 100 uM treated after 1 hr incubation with radioligand by liquid scintillation counting

[6] = molecular target: T1, Uracil nucleotide/cysteinyl leukotriene receptor; conditions: CHO-K1, 100 uM; remark: listed apart in the source
Description: Displacement of [3H]PSB-12150 from human GPR17 expressed in CHO-K1 cell membranes assessed as association half life at 100 uM by liquid scintillation counting

[7] = molecular target: T1, Uracil nucleotide/cysteinyl leukotriene receptor; test: Displacement of [3H]PSB-12150 from human GPR17 expressed in CHO-K1 cell membranes after 60 mins by competition binding assay
[8] = molecular target: T1, Uracil nucleotide/cysteinyl leukotriene receptor; test: Displacement of [3H]PSB-12150 from human GPR17 expressed in CHO-K1 cell membranes after 60 mins by homologous competition binding assay in presence of pranlukast
[9] = molecular target: T1, Uracil nucleotide/cysteinyl leukotriene receptor; test: Displacement of [3H]PSB-12150 from human GPR17 expressed in CHO-K1 cell membranes at 100 uM after 60 mins by liquid scintillation counting

With `O=c1ccn([C@@H]2O[C@H](COP(=O)(O)OP(=O)(O)O)[C@@H](O)[C@H]2O)c(=O)[nH]1` the Activity [1] was “inactive”.
`CCCCC/C=C\C\C=C/C=C/C=C/[C@@H](SCC(NC(=O)CC[C@H](N)C(=O)O)C(=O)NCC(=O)O)[C@@H](O)CCCC(=O)O` (single isomer, unassigned) was tested, and the Activity [2] was “inactive”.
`[3H]C([3H])(C(=O)O)C([3H])([3H])c1c(C(=O)O)[nH]c2cc(Cl)cc(Cl)c12` showed a Kd [3] of 1.26 µM.
For `Nc1ncnc2c1ncn2[C@@H]1O[C@H](COP(=O)(O)OP(=O)(O)OP(=O)(O)O)[C@@H](O)[C@H]1O`, the Activity [1] was “inactive”.
`CC(C)(O)c1ccccc1CC[C@@H](SCC1(CC(=O)O)CC1)c1cccc(/C=C/c2ccc3ccc(Cl)cc3n2)c1` [MONTELUKAST] was tested, and the Ki [4] was 6.54 µM.
`O=C(O)CCc1c(C(=O)O)[nH]c2cc(Cl)cc(Cl)c12` was tested, and the T1/2 [5] was 0.3 min, the T1/2 [6] was 1.8 min and the Ki [7] was 2.32 µM. For the same compound, the Ki [8] was 1.21 µM.
`O=C(Nc1cccc2c(=O)cc(-c3nnn[nH]3)oc12)c1ccc(OCCCCc2ccccc2)cc1` [PRANLUKAST] was tested, and the Ki [4] was 4.06 µM.
For `O=C(/C=C/c1c(C(=O)O)[nH]c2cc(Cl)cc(Cl)c12)Nc1ccccc1` [GAVESTINEL], the Ki [4] was 1.63 µM.
`O=c1ccn([C@@H]2O[C@H](COP(=O)(O)OP(=O)(O)OP(=O)(O)O)[C@@H](O)[C@H]2O)c(=O)[nH]1` was tested, and the Activity [1] was “inactive”.
In the case of `Nc1nc(=O)c2ncn([C@@H]3O[C@H](COP(=O)(O)OP(=O)(O)OP(=O)(O)O)[C@@H](O)C3O)c2[nH]1` (single isomer, unassigned), the Activity [9] is reported as “Active”.
In the case of `Nc1ncnc2c1ncn2[C@@H]1O[C@H](COP(=O)(O)OP(=O)(O)O)[C@@H](O)[C@H]1O`, the Activity [1] is reported as “inactive”.
